Measured values published in patent publication US11236122B2, “Triterpene amine derivatives” (DFH THERAPEUTICS, priority 2018, dated 2022).
Where a name gives a salt, the structure may show the parent alone.

Columns and labels:
[1] = tested on: WT pNL4-3; experiment: CA-SP1 accumulation assay, WT NL4-3; type: cell-based, HIV-1; settings: HeLa or 293T cells; for % CA-SP1 Accumulation 100 nM NL4-3: 100 nM compound; for % CA-SP1 Accumulation 10 nM NL4-3: 10 nM compound
Description: (§1) Cell culture, plasmids and transfections. The MT-4 T-cell line was maintained in RPMI-1640 medium supplemented with 10% (vol/vol) fetal bovine serum (FBS), 2 mM glutamine, 100 U/mL penicillin and 100 μg/mL streptomycin at 37° C. in a humidified 5% CO2 atmosphere. HeLa and 293T cells were maintained in Dulbecco's modified Eagle's medium (DMEM) supplemented with 5% (vol/vol) FBS, 2 mM glutamine, 100 U/mL penicillin and 100 μg/mL streptomycin. Molecular clones used in this study were WT pNL4-3 and the derivative encoding a Val-to-Ala mutation at SP1 residue 7, referred to as SP1-V7A. The MT-4 T-cell line was transfected the DEAE/dextran procedure; HeLa and 293T cells were transfected with linear polyethylenimine (L-PEI) or Lipofectamine 2000 (Invitrogen) as recommended by the supplier.
(§2) CA-SP1 accumulation assay. For CA-SP1 accumulation assays, HeLa or 293T cells were transfected with WT pNL4-3 or the SP1-V7A derivative. At 24 h post-transfection, cells were starved in Met/Cys-free medium for 30 min and metabolically labeled with [^35S]Met/Cys-Pro-mix (Amersham) for 2-3 h. Maturation inhibitors were maintained in the cultures throughout the transfection and labeling period. Viruses were collected by ultracentrifugation at 99,000×g for 45-60 min. Virus pellets were resuspended in Triton X-100 lysis buffer [300 mM NaCl, 50 mM Tris-HCl (pH 7.5), 0.5% Triton X-100, 10 mM iodoacetamide, and protease inhibitor cocktail tablets (Roche)]. CA and CA-SP1 proteins were separated on 13.5-15% polyacrylamide gels by SDS-polyacrylamide gel electrophoresis, exposed to a phosphorimager plate (Fuji) and quantified by Quantity One software (Bio-Rad).

[2] = tested on: pNL4-3 SP1-V7A; experiment: CA-SP1 accumulation assay, SP1-V7A derivative; type: cell-based, HIV-1; settings: HeLa or 293T cells; for % CA-SP1 Accumulation 100 nM SP1 V7A: 100 nM compound; for % CA-SP1 Accumulation 10 nM SP1 V7A: 10 nM compound
Description: as §1, §2

C=C(C)[C@@H]1CC[C@]2(CCNCCCN3CCCC3=O)CC[C@]3(C)[C@H](CC[C@@H]4[C@@]5(C)CC[C@H](OC(=O)CC(C)(C)CC(=O)O)C(C)(C)[C@@H]5CC[C@]43C)[C@@H]12 [Compound 51a, (3β)-17-[2-[[3-(2-Oxopyrrolidin-1-yl)propyl]amino]ethyl]-28-norlup-20(29)-en-3-ol, 3-(Hydrogen 3,3-Dimethylpentanedioate)]
% CA-SP1 Accumulation 100 nM NL4-3 [1]: 62.0%
% CA-SP1 Accumulation 100 nM SP1 V7A [2]: 18.0%

C=C(C)[C@@H]1CC[C@]2(CCCNCCCN3CCCC3)CC[C@]3(C)[C@H](CC[C@@H]4[C@@]5(C)CC[C@H](OC(=O)CC(C)(C)C(=O)O)C(C)(C)[C@@H]5CC[C@]43C)[C@@H]12 [Compound 51aa, (3β)-17-[3-[[3-(1-Pyrrolidinyl)propyl]amino]propyl]-28-norlup-20(29)-en-3-ol, 3-(1-Hydrogen 2,2-Dimethylbutanedioate) Sulfate]
% CA-SP1 Accumulation 10 nM NL4-3 [1]: 12.5%
% CA-SP1 Accumulation 100 nM NL4-3 [1]: 45.2%
% CA-SP1 Accumulation 10 nM SP1 V7A [2]: 5.3%
% CA-SP1 Accumulation 100 nM SP1 V7A [2]: 14.4%

C=C(C)[C@@H]1CC[C@]2(CCNCCC(=O)N3CCN(C)CC3)CC[C@]3(C)[C@H](CC[C@@H]4[C@@]5(C)CC[C@H](OC(=O)CC(C)(C)CC(=O)O)C(C)(C)[C@@H]5CC[C@]43C)[C@@H]12 [Compound 51b, (3β)-17-[2-[[3-(4-Methylpiperazin-1-yl)-3-oxopropyl]amino]ethyl]-28-norlup-20(29)-en-3-ol, 3-(Hydrogen 3,3-Dimethylpentanedioate)]
% CA-SP1 Accumulation 100 nM NL4-3 [1]: 58.0%
% CA-SP1 Accumulation 100 nM SP1 V7A [2]: 21.0%

C=C(C)[C@@H]1CC[C@]2(CCCNCCN3CCN(Cc4ccccc4)CC3)CC[C@]3(C)[C@H](CC[C@@H]4[C@@]5(C)CC[C@H](OC(=O)CC(C)(C)C(=O)O)C(C)(C)[C@@H]5CC[C@]43C)[C@@H]12 [Compound 51bb, (3β)-17-[3-[[2-[4-(Phenylmethyl)piperazin-1-yl]ethyl]amino]propyl]-28-norlup-20(29)-en-3-ol, 3-(1-Hydrogen 2,2-Dimethylbutanedioate) Sesquisulfate]
% CA-SP1 Accumulation 10 nM NL4-3 [1]: 5.8%
% CA-SP1 Accumulation 100 nM NL4-3 [1]: 8.4%
% CA-SP1 Accumulation 10 nM SP1 V7A [2]: 4.8%
% CA-SP1 Accumulation 100 nM SP1 V7A [2]: 3.7%

C=C(C)[C@@H]1CC[C@]2(CCNCCCN3CCN(S(C)(=O)=O)CC3)CC[C@]3(C)[C@H](CC[C@@H]4[C@@]5(C)CC[C@H](OC(=O)CC(C)(C)CC(=O)O)C(C)(C)[C@@H]5CC[C@]43C)[C@@H]12 [Compound 51c, (3β)-17-[2-[[3-[4-(Methylsulfonyl)piperazin-1-yl]propyl]amino]ethyl]-28-norlup-20(29)-en-3-ol, 3-(Hydrogen 3,3-Dimethylpentanedioate)]
% CA-SP1 Accumulation 100 nM NL4-3 [1]: 72.9 (3) %
% CA-SP1 Accumulation 100 nM SP1 V7A [2]: 29.2 (3) %

C=C(C)[C@@H]1CC[C@]2(CCCNCCN3CCN(S(C)(=O)=O)CC3)CC[C@]3(C)[C@H](CC[C@@H]4[C@@]5(C)CC[C@H](OC(=O)CC(C)(C)C(=O)O)C(C)(C)[C@@H]5CC[C@]43C)[C@@H]12 [Compound 51cc, (3β)-17-[3-[[2-[4-(Methylsulfonyl)piperazin-1-yl]ethyl]amino]propyl]-28-norlup-20(29)-en-3-ol, 3-(1-Hydrogen 2,2-Dimethylbutanedioate) Sesquisulfate]
% CA-SP1 Accumulation 10 nM NL4-3 [1]: 26.0%
% CA-SP1 Accumulation 100 nM NL4-3 [1]: 58.4%
% CA-SP1 Accumulation 10 nM SP1 V7A [2]: 12.5%
% CA-SP1 Accumulation 100 nM SP1 V7A [2]: 19.3%

C=C(C)[C@@H]1CC[C@]2(CCNCCCN3CCN(CCO)CC3)CC[C@]3(C)[C@H](CC[C@@H]4[C@@]5(C)CC[C@H](OC(=O)CC(C)(C)CC(=O)O)C(C)(C)[C@@H]5CC[C@]43C)[C@@H]12 [Compound 51d, (3β)-17-[2-[[3-[4-(2-Hydroxyethyl)piperazin-1-yl]propyl]amino]ethyl]-28-norlup-20(29)-en-3-ol, 3-(Hydrogen 3,3-Dimethylpentanedioate)]
% CA-SP1 Accumulation 100 nM NL4-3 [1]: 71.6 (3) %
% CA-SP1 Accumulation 100 nM SP1 V7A [2]: 20.4 (3) %

C=C(C)[C@@H]1CC[C@]2(CCCNCCN3CCS(=O)(=O)CC3)CC[C@]3(C)[C@H](CC[C@@H]4[C@@]5(C)CC[C@H](OC(=O)CC(C)(C)C(=O)O)C(C)(C)[C@@H]5CC[C@]43C)[C@@H]12 [Compound 51dd, (3β)-17-[[[3-[2-(1,1-Dioxothiomorpholin-4-yl)]Ethyl]Amino]Propyl]-28-norlup-20(29)-en-3-ol, 3-(1-Hydrogen 2,2-Dimethylbutanedioate) Sulfate]
% CA-SP1 Accumulation 10 nM NL4-3 [1]: 8.2%
% CA-SP1 Accumulation 100 nM NL4-3 [1]: 9.7%
% CA-SP1 Accumulation 10 nM SP1 V7A [2]: 5.9%
% CA-SP1 Accumulation 100 nM SP1 V7A [2]: 7.3%

C=C(C)[C@@H]1CC[C@]2(CCNCCCN3CCN(CCOC)CC3)CC[C@]3(C)[C@H](CC[C@@H]4[C@@]5(C)CC[C@H](OC(=O)CC(C)(C)CC(=O)O)C(C)(C)[C@@H]5CC[C@]43C)[C@@H]12 [Compound 51e, (3β)-17-[2-[[3-[4-(2-Methoxyethyl)piperazin-1-yl]propyl]amino]ethyl]-28-norlup-20(29)-en-3-ol, 3-(Hydrogen 3,3-Dimethylpentanedioate)]
% CA-SP1 Accumulation 100 nM NL4-3 [1]: 70.4 (3) %
% CA-SP1 Accumulation 100 nM SP1 V7A [2]: 23.1 (3) %

C=C(C)[C@@H]1CC[C@]2(CCNCCN3CCC(S(C)(=O)=O)CC3)CC[C@]3(C)[C@H](CC[C@@H]4[C@@]5(C)CC[C@H](OC(=O)CC(C)(C)C(=O)O)C(C)(C)[C@@H]5CC[C@]43C)[C@@H]12 [Compound 51gg, (3β)-17-[2-[[2-[4-(Methylsulfonyl)piperidin-1-yl]ethyl]amino]ethyl]-28-norlup-20(29)-en-3-ol, 3-(1-Hydrogen 2,2-Dimethylbutanedioate)]
% CA-SP1 Accumulation 10 nM NL4-3 [1]: 57.7%
% CA-SP1 Accumulation 10 nM SP1 V7A [2]: 30.9%

CC(C)(CC(=O)O[C@H]1CC[C@]2(C)[C@H]3CC[C@@H]4[C@H]5[C@H](C6(C)CC6)CC[C@]5(CCNCCN5CCCC5)CC[C@@]4(C)[C@]3(C)CC[C@H]2C1(C)C)C(=O)O [Compound 51h, (3β)-17-[2-[[2-(1-Pyrrolidinyl)ethyl]amino]ethyl]-20,29-methano-28-norlupan-3-ol, 3-(1-Hydrogen 2,2-Dimethylbutanedioate)]
% CA-SP1 Accumulation 100 nM NL4-3 [1]: 70.1%
% CA-SP1 Accumulation 100 nM SP1 V7A [2]: 20.1%

CN1CCN(CCCNCC[C@]23CC[C@@H](C4(C)CC4)[C@@H]2[C@H]2CC[C@@H]4[C@@]5(C)CC[C@H](OC(=O)CC(C)(C)C(=O)O)C(C)(C)[C@@H]5CC[C@@]4(C)[C@]2(C)CC3)CC1 [Compound 51i, (3β)-17-[2-[[3-(4-Methylpiperazin-1-yl)propyl]amino]ethyl]-20,29-methano-28-norlupan-3-ol, 3-(1-Hydrogen 2,2-Dimethylbutanedioate)]
% CA-SP1 Accumulation 100 nM NL4-3 [1]: 71.9%
% CA-SP1 Accumulation 100 nM SP1 V7A [2]: 22.0%

C=C(C)[C@@H]1CC[C@]2(CCNCCN3CCC(O)CC3)CC[C@]3(C)[C@H](CC[C@@H]4[C@@]5(C)CC[C@H](OC(=O)CC(C)(C)C(=O)O)C(C)(C)[C@@H]5CC[C@]43C)[C@@H]12 [Compound 51ii, (3β)-17-[2-[[2-(4-Hydroxypiperidin-1-yl)ethyl]amino]ethyl]-28-norlup-20(29)-en-3-ol, 3-(1-Hydrogen 2,2-Dimethylbutanedioate)]
% CA-SP1 Accumulation 10 nM NL4-3 [1]: 70.1%
% CA-SP1 Accumulation 10 nM SP1 V7A [2]: 29.5 (3) %

CN(C)CCCCNCC[C@]12CC[C@@H](C3(C)CC3)[C@@H]1[C@H]1CC[C@@H]3[C@@]4(C)CC[C@H](OC(=O)CC(C)(C)C(=O)O)C(C)(C)[C@@H]4CC[C@@]3(C)[C@]1(C)CC2 [Compound 51j, (3β)-17-[2-[[(4-Dimethylamino)butyl]amino]ethyl]-20,29-methano-28-norlupan-3-ol, 3-(1-Hydrogen 2,2-Dimethylbutanedioate)]
% CA-SP1 Accumulation 100 nM NL4-3 [1]: 53.6%
% CA-SP1 Accumulation 100 nM SP1 V7A [2]: 6.4%

CCN1CCC(NCC[C@]23CC[C@@H](C4(C)CC4)[C@@H]2[C@H]2CC[C@@H]4[C@@]5(C)CC[C@H](OC(=O)CC(C)(C)C(=O)O)C(C)(C)[C@@H]5CC[C@@]4(C)[C@]2(C)CC3)CC1 [Compound 51k]
% CA-SP1 Accumulation 100 nM NL4-3 [1]: 55.0 (2) %
% CA-SP1 Accumulation 100 nM SP1 V7A [2]: 27.3 (2) %

C=C(C)[C@@H]1CC[C@]2(CCNCCN3CCN(Cc4ccc(F)cc4)CC3)CC[C@]3(C)[C@H](CC[C@@H]4[C@@]5(C)CC[C@H](OC(=O)CC(C)(C)C(=O)O)C(C)(C)[C@@H]5CC[C@]43C)[C@@H]12 [Compound 51l, (3β)-17-[2-[[2-[4-(4-Fluorophenylmethyl)piperazin-1-yl]ethyl]amino]ethyl]-28-norlup-20(29)-en-3-ol, 3-(1-Hydrogen 2,2-Dimethylbutanedioate)]
% CA-SP1 Accumulation 10 nM NL4-3 [1]: 48.9%
% CA-SP1 Accumulation 10 nM SP1 V7A [2]: 38.2 (3) %
